This note sets out measurements from article PMC6532911, “Oryza sativa Brittle Culm 1-like 6 modulates β-glucan levels in the endosperm cell wall” (PLoS ONE, 2019).

The assay concerns the target T1, CBM-GST (CBM of OsBC1L6) (Oryza sativa, UniProt Q6Z4G8).
T1 construct: gene BC1L6; wheat germ cell-free expression; 48 kDa by SDS-PAGE
T1 sequence (Q6Z4G8 31-191): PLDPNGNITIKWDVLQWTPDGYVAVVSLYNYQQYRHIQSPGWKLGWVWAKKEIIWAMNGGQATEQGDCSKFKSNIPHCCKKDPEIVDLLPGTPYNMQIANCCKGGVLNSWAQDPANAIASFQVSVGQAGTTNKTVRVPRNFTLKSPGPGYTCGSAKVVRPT
As to the kind of experiment: surface plasmon resonance (Biacore T200). The note with it: CBM-GST captured by anti-GST on CM5 chip; HBS-EP pH 7.4, 25°C. Type of assay: binding. (In SPR one partner is held on a chip, and binding of the other changes the refractive index at the surface.)

For `OC[C@H]1O[C@@H](O[C@H]2[C@H](O)[C@@H](O)[C@H](O[C@H]3[C@H](O)[C@@H](O)[C@H](O[C@H]4[C@H](O)[C@@H](O)[C@H](O[C@H]5[C@H](O)[C@@H](O)[C@H](O[C@H]6[C@H](O)[C@@H](O)C(O)O[C@@H]6CO)O[C@@H]5CO)O[C@@H]4CO)O[C@@H]3CO)O[C@@H]2CO)[C@H](O)[C@@H](O)[C@@H]1O` (some centres unmarked) [GGGGGG, cellohexaose], binding was characterised by a dissociation constant (Kd) of 852 µM.

`OC1OC[C@@H](O[C@@H]2OC[C@@H](O[C@@H]3OC[C@@H](O[C@@H]4OC[C@@H](O[C@@H]5OC[C@@H](O[C@@H]6OC[C@@H](O)[C@H](O)[C@H]6O)[C@H](O)[C@H]5O)[C@H](O)[C@H]4O)[C@H](O)[C@H]3O)[C@H](O)[C@H]2O)[C@H](O)[C@H]1O` (some centres unmarked) [XXXXXX, xylohexaose]: the Kd – broadly, the equilibrium constant for the complex coming apart – is 760 µM.
